Measurements from ChEMBL document CHEMBL4304805, “Antibacterial activity of 2-amino-4-hydroxypyrimidine-5-carboxylates and binding to Burkholderia pseudomallei 2-C-methyl-d-erythritol-2,4-cyclodiphosphate synthase” (Bioorg Med Chem Lett, 2019).
Activity calls are given as the source filed them. No cut-off for these calls is given here.

Assays:
[1] = system: Mycolicibacterium smegmatis; test: Antibacterial activity against Mycobacterium smegmatis at 0.5 mM by Kirby Bauer disk diffusion method; type: functional; conditions: read-out: DIZ
[2] = system: Escherichia coli; test: Antibacterial activity against Escherichia coli at 0.5 mM by Kirby Bauer disk diffusion method; type: functional; conditions: read-out: DIZ
[3] = system: Pseudomonas aeruginosa; test: Antibacterial activity against Pseudomonas aeruginosa at 0.5 mM by Kirby Bauer disk diffusion method; type: functional; conditions: read-out: DIZ
[4] = target: T1, 2-C-methyl-D-erythritol 2,4-cyclodiphosphate synthase (Burkholderia pseudomallei (strain K96243)) (UniProt Q63T71); test: Binding affinity to Burkholderia pseudomallei IspF by surface plasmon resonance analysis
T1 sequence (whole entry): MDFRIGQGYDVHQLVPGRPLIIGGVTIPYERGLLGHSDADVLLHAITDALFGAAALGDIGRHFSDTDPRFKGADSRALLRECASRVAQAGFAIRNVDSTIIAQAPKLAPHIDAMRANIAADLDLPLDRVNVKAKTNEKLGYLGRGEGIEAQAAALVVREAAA

[5] = system: Corynebacterium pseudodiphtheriticum; test: Antibacterial activity against Corynebacterium pseudodiphtheriticum at 0.5 mM by Kirby Bauer disk diffusion method; type: functional; conditions: read-out: DIZ
[6] = system: Micrococcus luteus; test: Antibacterial activity against Micrococcus luteus at 0.5 mM by Kirby Bauer disk diffusion method; type: functional; conditions: read-out: DIZ
[7] = system: Burkholderia thailandensis; test: Antibacterial activity against Burkholderia thailandensis at 0.5 mM by Kirby Bauer disk diffusion method; type: functional; conditions: read-out: DIZ
[8] = target: T2, 2-C-methyl-D-erythritol 2,4-cyclodiphosphate synthase (Salmonella typhimurium (strain LT2 / SGSC1412 / ATCC 700720), UniProt Q8ZMF7); test: Inhibition of Salmonella typhimurium IspF by malachite green dye based assay; set-up: species or system Salmonella enterica subsp. enterica serovar Typhimurium
T2 sequence (Q8ZMF7 whole entry): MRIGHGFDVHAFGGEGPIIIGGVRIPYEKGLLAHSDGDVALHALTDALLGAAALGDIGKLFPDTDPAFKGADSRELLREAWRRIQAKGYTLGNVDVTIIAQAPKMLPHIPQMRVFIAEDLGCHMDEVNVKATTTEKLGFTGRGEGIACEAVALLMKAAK

[9] = system: Klebsiella pneumoniae; test: Antibacterial activity against Klebsiella pneumoniae at 0.5 mM by Kirby Bauer disk diffusion method; type: functional; conditions: read-out: DIZ
[10] = system: Bacillus cereus; test: Antibacterial activity against Bacillus cereus at 0.5 mM by Kirby Bauer disk diffusion method; type: functional; conditions: read-out: DIZ
[11] = system: Corynebacterium xerosis; test: Antibacterial activity against Corynebacterium xerosis at 0.5 mM by Kirby Bauer disk diffusion method; type: functional; conditions: read-out: DIZ

SMILES	zone of inhibition at 500 µM [1]	zone of inhibition at 500 µM [2]	zone of inhibition at 500 µM [3]	Activity [4]	zone of inhibition at 500 µM [5]	zone of inhibition at 500 µM [6]	zone of inhibition at 500 µM [7]	IC50 [8]	zone of inhibition at 500 µM [9]	zone of inhibition at 500 µM [10]	zone of inhibition at 500 µM [11]
O=C(O)c1cnc(Nc2ccc(-c3ccncc3)cc2)nc1O	0 mm	0 mm	0 mm	Active	0 mm	0 mm	0 mm	23.5 µM	0 mm	10 mm	0 mm
CCOC(=O)C1=C(C)N=c2s/c(=C\c3cc(Br)c(O)c(Br)c3)c(=O)n2C1c1cccs1 (stereo not drawn)								37 µM			
CCOC(=O)c1cnc(NCc2cccc(Cl)c2)nc1O	14 mm	0 mm	0 mm		0 mm	0 mm	11 mm		0 mm	0 mm	0 mm
CCOC(=O)c1cnc(NCc2ccccc2Cl)nc1O	0 mm	0 mm	0 mm		0 mm	15 mm	0 mm		0 mm	10 mm	0 mm
O=C(O)c1cnc(NCCc2ccccn2)nc1O	17 mm	0 mm	17 mm		0 mm	15 mm	10 mm		7 mm	7 mm	0 mm
Nc1ccc(C(=O)O)c(O)c1 [AMINOSALICYLIC ACID]	14 mm	11 mm	0 mm		0 mm	0 mm	12 mm		0 mm	9 mm	0 mm
O=C(O)c1cnc(Nc2ccccc2)nc1O	15 mm	0 mm	0 mm		0 mm	0 mm	0 mm		0 mm	0 mm	0 mm
O=C(O)c1cnc(NCCc2ccc(Cl)c(Cl)c2)nc1O	11 mm	0 mm	0 mm		0 mm	0 mm	11 mm		8 mm	13 mm	0 mm
CCOC(=O)c1cnc(NCCc2ccc(Cl)c(Cl)c2)nc1O	0 mm	0 mm	0 mm		0 mm	0 mm	0 mm		0 mm	10 mm	0 mm
CCOC(=O)c1cnc(Nc2cccc(-c3ccccc3)c2)nc1O	15 mm	0 mm	0 mm		0 mm	0 mm	0 mm		0 mm	15 mm	0 mm
CCOC(=O)c1cnc(Nc2ccc(-c3ccccc3)cc2)nc1O	0 mm	0 mm	0 mm		0 mm	0 mm	0 mm		0 mm	11 mm	0 mm
